These compounds were tested against T1, MAGL (recombinant wild-type) (Homo sapiens, UniProt Q99685) (assay: MAGL inhibitory activity, hydrolysis of 4-nitrophenylacetate to 4-nitrophenol (absorbance at 405 nm)). Details: 1 nM MAGL, 300 μM 4-nitrophenylacetate, 15 min preincubation at RT, slope of absorbance at 405 nm between 5 and 80 min.
T1 sequence (Q99685 1-303): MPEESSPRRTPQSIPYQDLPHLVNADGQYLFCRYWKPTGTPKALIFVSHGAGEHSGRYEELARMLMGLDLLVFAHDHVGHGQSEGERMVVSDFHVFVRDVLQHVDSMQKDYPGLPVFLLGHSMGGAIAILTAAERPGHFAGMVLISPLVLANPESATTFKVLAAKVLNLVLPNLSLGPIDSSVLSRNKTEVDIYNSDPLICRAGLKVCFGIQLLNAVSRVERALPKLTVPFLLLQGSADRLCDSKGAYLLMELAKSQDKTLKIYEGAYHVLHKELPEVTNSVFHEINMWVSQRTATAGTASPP
Type: biochemical
Description: Compounds were profiled for MAGL inhibitory activity by measuring the enzymatic activity of MAGL by following the hydrolysis of 4-nitorphenylacetate resulting in 4-nitrophenol, which absorbs at 405-412 nm (G. G. Muccioli, G. Labar, D. M. Lambert, Chem. Bio. Chem. 2008, 9, 2704-2710).
The assay was carried out in 384 well assay plates (black with clear bottom, non-binding surface treated, Corning Ref. 3655) in a total volume of 40 μL. Compound dilutions were made in 100% DMSO (VWR Chemicals 23500.297) in a polypropylene plate in 3-fold dilution steps to give a final concentration range in the assay from 25 μM to 1.7 nM. 1 μL compound dilutions (100% DMSO) were added to 19 μL MAGL (recombinant wild-type) in assay buffer (50 mM TRIS (GIBCO, 15567-027), 1 mM EDTA (Fluka, 03690-100 ml)). The plate was shaked for 1 min at 2000 rpm (Variomag Teleshake) and then incubated for 15 min at RT. To start the reaction, 20 μL 4-Nitrophenlyacetate (Sigma N-8130) in assay buffer with 6% EtOH was added. The final concentrations in the assay were 1 nM MAGL and 300 μM 4-Nitrophenylacetate. After shaking (1 m, 2000 rpm) and 5 min incubation at RT, the absorbance at 405 nm was measured for a first time (Molecular Devices, SpectraMax Paradigm). A second measurement was then done after incubation for 80 min at RT. From the two measurements, the slope was calculated by subtracting the first from the second measurement.

Row | SMILES | IC50 [nM]
1 | O=C1COc2ccc(C(=O)N3CCC(Oc4ccccc4)C3)cc2N1 (stereo not drawn) [Example 18, 6-(3-phenoxypyrrolidine-1-carbonyl)-4H-1,4-benzoxazin-3-one] | 1040
2 | O=C1COc2ccc(C(=O)N3CCC(Cc4ccccc4)C3)cc2N1 (stereo not drawn) [Example 28, 6-(3-benzylpyrrolidine-1-carbonyl)-4H-1,4-benzoxazin-3-one] | 840
3 | O=C1COc2ccc(C(=O)N3CCC(C(=O)N4CCCCC4)CC3)cc2N1 [Example 27, 6-[4-(piperidine-1-carbonyl)piperidine-1-carbonyl]-4H-1,4-benzoxazin-3-one] | 4240
4 | O=C1COc2ccc(C(=O)N3CCC(O)(Cc4ccccc4)CC3)cc2N1 [Example 7, 6-(4-benzyl-4-hydroxypiperidine-1-carbonyl)-4H-1,4-benzoxazin-3-one] | 4350
5 | O=C1COc2ccc(C(=O)N3CCC(N4C[C@H](c5ccccc5)OC4=O)CC3)cc2N1 [Example 11, 6-[4-[(5S)-2-oxo-5-phenyl-1,3-oxazolidin-3-yl]piperidine-1-carbonyl]-4H-1,4-benzoxazin-3-one] | 1260
6 | O=C1COc2ccc(C(=O)N3CCC(Cc4ccccn4)CC3)cc2N1 [Example 22, 6-[4-(pyridin-2-ylmethyl)piperidine-1-carbonyl]-4H-1,4-benzoxazin-3-one] | 1700
7 | O=C1COc2ccc(C(=O)N3CCC(S(=O)(=O)c4ccccc4)CC3)cc2N1 [Example 10, 6-[4-(benzenesulfonyl)piperidine-1-carbonyl]-4H-1,4-benzoxazin-3-one] | 4220
8 | CC1CN(C(=O)c2ccc3c(c2)NC(=O)CO3)CCN1Cc1ccc(C(F)(F)F)cc1 (stereo not drawn) [Example 34, 6-[3-methyl-4-[[4-(trifluoromethyl)phenyl]methyl]piperazine-1-carbonyl]-4H-1,4-benzoxazin-3-one] | 449
9 | O=C1COc2ccc(C(=O)N3CCN(C(=O)c4ccc(C(F)(F)F)cc4)CC3)cc2N1 [Example 32, 6-[4-[4-(trifluoromethyl)benzoyl]piperazine-1-carbonyl]-4H-1,4-benzoxazin-3-one] | 2180
10 | O=C1COc2ccc(C(=O)N3CCC(N4C[C@@H](c5ccccc5)OC4=O)CC3)cc2N1 [Example 19, 6-[4-[(5R)-2-oxo-5-phenyl-1,3-oxazolidin-3-yl]piperidine-1-carbonyl]-4H-1,4-benzoxazin-3-one] | 2490
11 | O=C1COc2ccc(C(=O)N3CCC(Cc4ccc(C(F)(F)F)cc4)C3)cc2N1 (stereo not drawn) [Example 31, 6-[3-[[4-(trifluoromethyl)phenyl]methyl]pyrrolidine-1-carbonyl]-4H-1,4-benzoxazin-3-one] | 400
12 | O=C1COc2ccc(C(=O)N3CCN(CCc4cccc(Cl)c4)C(c4cc[nH]n4)C3)cc2N1 (stereo not drawn) [Example 35, 6-[4-[2-(3-chlorophenyl)ethyl]-3-(1H-pyrazol-3-yl)piperazine-1-carbonyl]-4H-1,4-benzoxazin-3-one] | 1830
13 | CN(C(=O)c1ccccc1)C1CCN(C(=O)c2ccc3c(c2)NC(=O)CO3)CC1 [Example 25, N-methyl-N-[1-(3-oxo-4H-1,4-benzoxazine-6-carbonyl)piperidin-4-yl]benzamide] | 830
14 | O=C1COc2ccc(C(=O)N3CCN(Cc4ccccc4)CC3)cc2N1 [Example 2, 6-(4-benzylpiperazine-1-carbonyl)-4H-1,4-benzoxazin-3-one] | 3720
15 | O=C1COc2ccc(C(=O)N3CCC(Oc4ccccc4)CC3)cc2N1 [Example 14, 6-(4-phenoxypiperidine-1-carbonyl)-4H-1,4-benzoxazin-3-one] | 990
16 | O=C1COc2ccc(C(=O)N3CCC(Cc4ccccc4)CC3)nc2N1 [Example 26, 6-(4-benzylpiperidine-1-carbonyl)-4H-pyrido[3,2-b][1,4]oxazin-3-one] | 2060
17 | O=C1COc2ccc(C(=O)N3CCN(Cc4ccc(C(F)(F)F)cc4)C(c4cc[nH]n4)C3)cc2N1 (stereo not drawn) [Example 37, 6-[3-(1H-pyrazol-3-yl)-4-[[4-(trifluoromethyl)phenyl]methyl]piperazine-1-carbonyl]-4H-1,4-benzoxazin-3-one] | 2250

The next compounds have a lower IC50 than those just listed; values first:

Row | IC50 [nM] | SMILES
18 | 88 | O=C1COc2ccc(C(=O)N3CCC(Cc4ccc(F)cc4)CC3)cc2N1 [Example 3, 6-[4-[(4-fluorophenyl)methyl]piperidine-1-carbonyl]-4H-1,4-benzoxazin-3-one]
19 | 66 | O=C1COc2ccc(C(=O)N3CCC(Cc4cccc(F)c4F)CC3)cc2N1 [Example 16, 6-[4-[(2,3-difluorophenyl)methyl]piperidine-1-carbonyl]-4H-1,4-benzoxazin-3-one]
20 | 58 | O=C1COc2ccc(C(=O)N3CCC(Cc4cc(F)cc(F)c4)CC3)cc2N1 [Example 9, 6-[4-[(3,5-difluorophenyl)methyl]piperidine-1-carbonyl]-4H-1,4-benzoxazin-3-one]
21 | 101 | O=C1COc2ccc(C(=O)N3CCC(Cc4ccccc4)CC3)cc2N1 [Example 1, 6-(4-benzylpiperidine-1-carbonyl)-4H-1,4-benzoxazin-3-one]
22 | 39.5 | O=C1COc2ccc(C(=O)N3CCC(Cc4cccc(C(F)(F)F)c4)CC3)cc2N1 [Example 17, 6-[4-[[3-(trifluoromethyl)phenyl]methyl]piperidine-1-carbonyl]-4H-1,4-benzoxazin-3-one]
23 | 130 | O=C1COc2ccc(C(=O)N3CCC(Cc4ccccc4-c4ccccc4)CC3)cc2N1 [Example 21, 6-[4-[(2-phenylphenyl)methyl]piperidine-1-carbonyl]-4H-1,4-benzoxazin-3-one]
24 | 140 | O=C1COc2c(F)cc(C(=O)N3CCC(Cc4ccccc4)CC3)cc2N1 [Example 24, 6-(4-benzylpiperidine-1-carbonyl)-8-fluoro-4H-1,4-benzoxazin-3-one]
25 | 320 | O=C1COc2ccc(C(=O)N3CCC(C(=O)c4ccccc4)CC3)cc2N1 [Example 13, 6-(4-benzoylpiperidine-1-carbonyl)-4H-1,4-benzoxazin-3-one]
26 | 370 | N#Cc1ccc(CC2CCN(C(=O)c3ccc4c(c3)NC(=O)CO4)CC2)cc1 [Example 20, 4-[[1-(3-oxo-4H-1,4-benzoxazine-6-carbonyl)piperidin-4-yl]methyl]benzonitrile]
27 | 48 | O=C1COc2ccc(C(=O)N3CCC(Cc4ccc(Cl)cc4)CC3)cc2N1 [Example 12, 6-[4-[(4-chlorophenyl)methyl]piperidine-1-carbonyl]-4H-1,4-benzoxazin-3-one]
28 | 52 | COc1cccc(CC2CCN(C(=O)c3ccc4c(c3)NC(=O)CO4)CC2)c1 [Example 6, 6-[4-[(3-methoxyphenyl)methyl]piperidine-1-carbonyl]-4H-1,4-benzoxazin-3-one]
29 | 150 | O=C1COc2ccc(C(=O)N3CC(Cc4ccc(C(F)(F)F)cc4)C3)cc2N1 [Example 29, 6-[3-[[4-(trifluoromethyl)phenyl]methyl]azetidine-1-carbonyl]-4H-1,4-benzoxazin-3-one]
30 | 310 | O=C1COc2ccc(C(=O)N3CCC(N(C(=O)Cc4ccccc4)C4CC4)CC3)cc2N1 [Example 33, N-cyclopropyl-N-[1-(3-oxo-4H-1,4-benzoxazine-6-carbonyl)piperidin-4-yl]-2-phenylacetamide]
31 | 47 | O=C1COc2ccc(C(=O)N3CCC(Cc4cccc(F)c4)CC3)cc2N1 [Example 8, 6-[4-[(3-fluorophenyl)methyl]piperidine-1-carbonyl]-4H-1,4-benzoxazin-3-one]
32 | 170 | COc1ccc(CC2CCN(C(=O)c3ccc4c(c3)NC(=O)CO4)CC2)cc1 [Example 5, 6-[4-[(4-methoxyphenyl)methyl]piperidine-1-carbonyl]-4H-1,4-benzoxazin-3-one]
33 | 220 | O=C1COc2ccc(C(=O)N3CCC(Cc4cccc(C(F)(F)F)c4)C3)cc2N1 (stereo not drawn) [Example 30, 6-[3-[[3-(trifluoromethyl)phenyl]methyl]pyrrolidine-1-carbonyl]-4H-1,4-benzoxazin-3-one]
34 | 300 | O=C1COc2ccc(C(=O)N3CCC(F)(Cc4ccc(Cl)cc4)CC3)cc2N1 [Example 23, 6-[4-[(4-chlorophenyl)methyl]-4-fluoropiperidine-1-carbonyl]-4H-1,4-benzoxazin-3-one]
35 | 112 | O=C1COc2ccc(C(=O)N3CCN(Cc4ccc(C(F)(F)F)cc4)C(C(F)(F)F)C3)cc2N1 (stereo not drawn) [Example 36, 6-[3-(trifluoromethyl)-4-[[4-(trifluoromethyl)phenyl]methyl]piperazine-1-carbonyl]-4H-1,4-benzoxazin-3-one]
36 | 76 | O=C1COc2ccc(C(=O)N3CCC(Oc4ccc(C(F)(F)F)cc4)CC3)cc2N1 [Example 15, 6-[4-[4-(trifluoromethyl)phenoxy]piperidine-1-carbonyl]-4H-1,4-benzoxazin-3-one]
